Results published in PubChem BioAssay (NCI).
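Values below derive from 48-hour exposures of cells grown in 96-well plates, with endpoints linearly interpolated between the two concentrations bracketing the appropriate inhibition level. At the TGI there is no net growth.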

Columns and labels:
Assay in all cases: NCI tumour cell line growth inhibition, 48 h
MALME-3M melanoma = test system: MALME-3M melanoma
K-562 leukemia = test system: K-562 leukemia
OVCAR-4 ovarian = test system: OVCAR-4 ovarian
SNB-19 CNS = test system: SNB-19 CNS
EKVX NSCLC = test system: EKVX NSCLC
SK-MEL-28 melanoma = test system: SK-MEL-28 melanoma
A498 renal = test system: A498 renal
MCF7 breast = test system: MCF7 breast
786-0 renal = test system: 786-0 renal
HCT-116 colon = test system: HCT-116 colon
UACC-62 melanoma = test system: UACC-62 melanoma
SNB-75 CNS = test system: SNB-75 CNS
SF-539 CNS = test system: SF-539 CNS
DU-145 prostate = test system: DU-145 prostate
SN12C renal = test system: SN12C renal
HS 578T breast = test system: HS 578T breast
BT-549 breast = test system: BT-549 breast
MDA-MB-231 breast = test system: MDA-MB-231 breast
OVCAR-8 ovarian = test system: OVCAR-8 ovarian
SK-MEL-2 melanoma = test system: SK-MEL-2 melanoma
ACHN renal = test system: ACHN renal
TK-10 renal = test system: TK-10 renal
A549 NSCLC = test system: A549 NSCLC
UO-31 renal = test system: UO-31 renal
CAKI-1 renal = test system: CAKI-1 renal
NCI-H460 lung = test system: NCI-H460 lung
CCRF-CEM leukemia = test system: CCRF-CEM leukemia
U251 CNS = test system: U251 CNS
HCT-15 colon = test system: HCT-15 colon
HOP-62 NSCLC = test system: HOP-62 NSCLC
PC-3 prostate = test system: PC-3 prostate
DMS 114 small cell lung = test system: DMS 114 small cell lung
KM12 colon = test system: KM12 colon
M14 melanoma = test system: M14 melanoma
SR leukemia = test system: SR leukemia
LXFL 529 NSCLC = test system: LXFL 529 NSCLC
IGROV1 ovarian = test system: IGROV1 ovarian
NCI-H23 lung = test system: NCI-H23 lung
RPMI-8226 leukemia = test system: RPMI-8226 leukemia
DMS 273 small cell lung = test system: DMS 273 small cell lung
HL-60(TB) leukemia = test system: HL-60(TB) leukemia
SF-295 CNS = test system: SF-295 CNS
T-47D breast = test system: T-47D breast
MOLT-4 leukemia = test system: MOLT-4 leukemia
LOX IMVI melanoma = test system: LOX IMVI melanoma
SNB-78 CNS = test system: SNB-78 CNS
RXF 393 renal = test system: RXF 393 renal
SK-OV-3 ovarian = test system: SK-OV-3 ovarian
M19-MEL melanoma = test system: M19-MEL melanoma
RXF-631 renal = test system: RXF-631 renal
SF-268 CNS = test system: SF-268 CNS
DLD-1 colon = test system: DLD-1 colon
SW-620 colon = test system: SW-620 colon
KM20L2 colon = test system: KM20L2 colon
OVCAR-5 ovarian = test system: OVCAR-5 ovarian
HOP-92 NSCLC = test system: HOP-92 NSCLC
XF 498 CNS = test system: XF 498 CNS
HOP-18 NSCLC = test system: HOP-18 NSCLC
NCI-H522 lung = test system: NCI-H522 lung
NCI/ADR-RES ovarian = test system: NCI/ADR-RES ovarian
MDA-MB-435 = test system: MDA-MB-435
NCI-H226 lung = test system: NCI-H226 lung
MDA-N = test system: MDA-N
HCC-2998 colon = test system: HCC-2998 colon
OVCAR-3 ovarian = test system: OVCAR-3 ovarian
HT29 colon = test system: HT29 colon
UACC-257 melanoma = test system: UACC-257 melanoma
SK-MEL-5 melanoma = test system: SK-MEL-5 melanoma
COLO 205 colon = test system: COLO 205 colon

Q: Which results are given for CC1(C)C(=O)/C=C\C(=O)C(C)(C)C2=CC=C(O2)C(C)(C)C(=O)C(Br)C(Br)C(=O)C(C)(C)C2=CC=C1O2 (stereo not given)?
A: TGI (MALME-3M melanoma): > 100 µM; TGI (K-562 leukemia): 45.4 µM; TGI (OVCAR-4 ovarian): > 100 µM; TGI (SNB-19 CNS): > 100 µM; TGI (EKVX NSCLC): > 100 µM; TGI (SK-MEL-28 melanoma): > 100 µM; TGI (A498 renal): > 100 µM; TGI (MCF7 breast): > 100 µM; TGI (786-0 renal): > 100 µM; TGI (HCT-116 colon): 65.6 µM; TGI (UACC-62 melanoma): 49.3 µM; TGI (SNB-75 CNS): > 80.3 µM; TGI (SF-539 CNS): > 100 µM; TGI (DU-145 prostate): > 100 µM; TGI (SN12C renal): > 100 µM; TGI (HS 578T breast): > 100 µM; TGI (BT-549 breast): 76.5 µM; TGI (MDA-MB-231 breast): > 86.7 µM; TGI (OVCAR-8 ovarian): 40.1 µM; TGI (SK-MEL-2 melanoma): > 100 µM; TGI (ACHN renal): > 46.4 µM; TGI (TK-10 renal): > 100 µM; TGI (A549 NSCLC): > 100 µM; TGI (UO-31 renal): > 100 µM; TGI (CAKI-1 renal): > 100 µM; TGI (NCI-H460 lung): > 100 µM; TGI (CCRF-CEM leukemia): 11.2 µM; TGI (U251 CNS): > 81.8 µM; TGI (HCT-15 colon): > 100 µM; TGI (HOP-62 NSCLC): > 100 µM; TGI (PC-3 prostate): > 100 µM; TGI (DMS 114 small cell lung): > 31.6 µM; TGI (KM12 colon): > 100 µM; TGI (M14 melanoma): > 87 µM; TGI (SR leukemia): 5.62 µM; TGI (LXFL 529 NSCLC): > 100 µM; TGI (IGROV1 ovarian): > 85.6 µM; TGI (NCI-H23 lung): > 100 µM; TGI (RPMI-8226 leukemia): 9.56 µM; TGI (DMS 273 small cell lung): > 100 µM; TGI (HL-60(TB) leukemia): 18.1 µM; TGI (SF-295 CNS): > 100 µM; TGI (T-47D breast): > 100 µM; TGI (MOLT-4 leukemia): 30.6 µM; TGI (LOX IMVI melanoma): > 59.6 µM; TGI (SNB-78 CNS): > 100 µM; TGI (RXF 393 renal): > 83.8 µM; TGI (SK-OV-3 ovarian): > 100 µM; TGI (M19-MEL melanoma): > 100 µM; TGI (RXF-631 renal): > 100 µM; TGI (SF-268 CNS): > 100 µM; TGI (DLD-1 colon): 87.2 µM; TGI (SW-620 colon): 31.1 µM; TGI (KM20L2 colon): > 100 µM; TGI (OVCAR-5 ovarian): > 100 µM; TGI (HOP-92 NSCLC): > 100 µM; TGI (XF 498 CNS): > 100 µM; TGI (HOP-18 NSCLC): > 100 µM; TGI (NCI-H522 lung): 59.6 µM; TGI (NCI/ADR-RES ovarian): 90.2 µM; TGI (MDA-MB-435): > 100 µM; TGI (NCI-H226 lung): > 100 µM; TGI (MDA-N): > 100 µM; TGI (HCC-2998 colon): > 100 µM; TGI (OVCAR-3 ovarian): 68.9 µM; TGI (HT29 colon): > 100 µM; TGI (UACC-257 melanoma): > 100 µM; TGI (SK-MEL-5 melanoma): > 100 µM; TGI (COLO 205 colon): > 100 µM

Q: How did the TGI (K-562 leukemia) turn out when COc1ccc(C2(Cl)C(Cl)(C(F)(F)F)C2(Cl)C(F)(F)F)cc1 (stereo not given) was run?
A: > 100 µM

Q: And the TGI (OVCAR-4 ovarian)?
A: 30 µM

Q: And the TGI (SNB-19 CNS)?
A: 29.1 µM

Q: And the TGI (EKVX NSCLC)?
A: 31.6 µM

Q: What about the TGI (SK-MEL-28 melanoma) of the same compound?
A: 29 µM

Q: And the TGI (786-0 renal)?
A: 31 µM

Q: What about the TGI (HCT-116 colon) of the same compound?
A: 23.9 µM

Q: And the TGI (UACC-62 melanoma)?
A: 26.4 µM

Q: What about the TGI (SNB-75 CNS) of the same compound?
A: 28 µM

Q: What about the TGI (SF-539 CNS) of the same compound?
A: 28.9 µM

Q: What about the TGI (SN12C renal) of the same compound?
A: 29.2 µM

Q: And the TGI (OVCAR-8 ovarian)?
A: 25.2 µM

Q: What about the TGI (SK-MEL-2 melanoma) of the same compound?
A: 27.2 µM

Q: And the TGI (ACHN renal)?
A: 30.4 µM

Q: And the TGI (TK-10 renal)?
A: 32 µM

Q: What about the TGI (A549 NSCLC) of the same compound?
A: 28.1 µM

Q: And the TGI (UO-31 renal)?
A: 29.5 µM

Q: What about the TGI (CAKI-1 renal) of the same compound?
A: 29.5 µM

Q: What about the TGI (NCI-H460 lung) of the same compound?
A: 30.2 µM

Q: And the TGI (CCRF-CEM leukemia)?
A: 33.2 µM

Q: And the TGI (U251 CNS)?
A: 28.2 µM

Q: And the TGI (HCT-15 colon)?
A: 29.6 µM

Q: What about the TGI (HOP-62 NSCLC) of the same compound?
A: 32.5 µM

Q: What about the TGI (DMS 114 small cell lung) of the same compound?
A: 25 µM

Q: And the TGI (KM12 colon)?
A: 27 µM

Q: What about the TGI (M14 melanoma) of the same compound?
A: 24.2 µM

Q: What about the TGI (SR leukemia) of the same compound?
A: 30.7 µM

Q: What about the TGI (LXFL 529 NSCLC) of the same compound?
A: 27.1 µM

Q: And the TGI (IGROV1 ovarian)?
A: 30.8 µM

Q: And the TGI (NCI-H23 lung)?
A: 27.8 µM

Q: What about the TGI (RPMI-8226 leukemia) of the same compound?
A: 34.8 µM

Q: And the TGI (DMS 273 small cell lung)?
A: 27.4 µM

Q: And the TGI (HL-60(TB) leukemia)?
A: 54.9 µM

Q: What about the TGI (SF-295 CNS) of the same compound?
A: 29 µM

Q: What about the TGI (MOLT-4 leukemia) of the same compound?
A: 15 µM

Q: What about the TGI (LOX IMVI melanoma) of the same compound?
A: 20.5 µM

Q: What about the TGI (SNB-78 CNS) of the same compound?
A: 29.7 µM

Q: What about the TGI (RXF 393 renal) of the same compound?
A: 24.6 µM

Q: What about the TGI (SK-OV-3 ovarian) of the same compound?
A: 31.2 µM

Q: What about the TGI (M19-MEL melanoma) of the same compound?
A: 26.5 µM

Q: And the TGI (RXF-631 renal)?
A: 30.3 µM

Q: And the TGI (SF-268 CNS)?
A: 29 µM

Q: And the TGI (DLD-1 colon)?
A: 29.4 µM

Q: What about the TGI (SW-620 colon) of the same compound?
A: 33.1 µM

Q: What about the TGI (KM20L2 colon) of the same compound?
A: 28.9 µM

Q: And the TGI (OVCAR-5 ovarian)?
A: 27 µM

Q: And the TGI (HOP-92 NSCLC)?
A: 27.1 µM

Q: And the TGI (XF 498 CNS)?
A: 25.5 µM

Q: And the TGI (HOP-18 NSCLC)?
A: 28.6 µM

Q: And the TGI (NCI-H226 lung)?
A: 28.9 µM

Q: What about the TGI (HCC-2998 colon) of the same compound?
A: 29.8 µM

Q: And the TGI (OVCAR-3 ovarian)?
A: 28.8 µM

Q: And the TGI (HT29 colon)?
A: 27.8 µM

Q: What about the TGI (UACC-257 melanoma) of the same compound?
A: 26.5 µM

Q: And the TGI (SK-MEL-5 melanoma)?
A: 22.1 µM

Q: What about the TGI (COLO 205 colon) of the same compound?
A: 29.3 µM
